TGI and GI50 data for 19 molecules are collected here from PubChem BioAssay (NCI).

Common to all, as to assay: inhibition of tumour cell growth, NCI panel, 48 h
Experiment [1] relates to OVCAR-5 ovarian.
Experiment [2] deals with IGROV1 ovarian.
The test system of experiment [3] is UACC-257 melanoma.
Experiment [4] concerns HOP-62 NSCLC.
Experiment [5] concerns MOLT-4 leukemia.
Experiment [6] has as its system OVCAR-3 ovarian.
Experiment [7] has as its system SF-295 CNS.
Experiment [8] has as its system EKVX NSCLC.
The subject of experiment [9] is UACC-62 melanoma.
Experiment [10] concerns RXF 393 renal.

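The compound was tested at five concentrations on cells cultured in 96-well plates, with a 48-hour exposure period. Here, GI50 denotes the concentration required for 50% inhibition of growth. TGI denotes the concentration required for complete inhibition of growth.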

Regarding `Cc1c(C(=O)CSc2nc3ccccc3[nH]2)c(=O)n(-c2ccccc2)n1C`, the TGI in experiment [1], in experiment [2], in [3], in experiment [4], in experiment [5] and in [6] was above 100 µM throughout. In experiment [7], this molecule yielded a TGI above 100 µM.

As for `CC1=NN(C(=O)c2ccccc2O)C(=O)/C1=C/c1cccc([N+](=O)[O-])c1`, the TGI was above 100 µM in experiment [8]; above 100 µM in [1]; above 100 µM in [3]; above 100 µM in [5]; above 47.5 µM in experiment [6]; 27.1 µM in [9]. The TGI in experiment [7] is above 100 µM.

For `CC1CC[C@]2(C(=O)O)CCC3(C)C(=CCC4[C@@]5(C)CC[C@H](OS(=O)(=O)c6ccccc6)C(C)(C)C5CC[C@]43C)[C@@H]2[C@H]1C` (some centres undefined), the TGI in experiment [8], in experiment [1], in [2], in experiment [3], in experiment [4] and in experiment [5] was above 100 µM in each case. Besides, the TGI in [6], in [9] and in [7] was above 100 µM throughout.

Take `COc1nc(NC2OC(COC(C)=O)C(OC(C)=O)C(OC(C)=O)C2OC(C)=O)c(-c2csc(N)n2)c(=O)n1C` (centres undefined): the TGI in [1], in experiment [2], in [3], in experiment [4], in [5] and in [6] was above 100 µM in each case. Also, the TGI in experiment [9] and in experiment [7] was above 100 µM throughout.

Consider `O=c1c2ccccc2oc2ccc(OCCCCCCN3CCCCCC3)cc12`, for which the GI50 was 2.88 µM in experiment [8]; 3.24 µM in experiment [1]; 4.29 µM in experiment [2]; 2.52 µM in [3]; 2.17 µM in [10]; 2.38 µM in [5]. In addition, the values for the GI50 in experiment [6], in experiment [9] and in experiment [7] were 4.09 µM, 2.29 µM and 2.16 µM, respectively. In addition, the TGI in experiment [8] was determined as 13.9 µM; in [1], 13.5 µM; in experiment [2], 17.5 µM; in experiment [3], 5.28 µM; in experiment [10], 5.6 µM; in [5], 6.29 µM. Also, the TGI in [6] turned out to be 16.1 µM; in [9] it was 4.78 µM; in experiment [7] it was 5.87 µM.

As to `CCOc1cc(-c2ccc[nH]2)[nH]c1/C=C1\N=C(C)C(C(=O)OC)=C1C`, the GI50 in experiment [8] was 0.235 µM; in experiment [1], 0.0552 µM; in [3], 0.0551 µM; in experiment [4], 0.0361 µM; in experiment [10], 0.0219 µM; in [6], 0.0329 µM. The GI50 in experiment [9] is 0.024 µM. Further, the TGI is 2.3 µM in experiment [8]; 1.68 µM in [1]; 0.939 µM in [3]; 0.294 µM in experiment [4]; 0.0881 µM in experiment [10]; 1.04 µM in [6]. The same molecule came in with a TGI in experiment [9] of 0.0581 µM.

`C/C=C1\C(=O)OC2CCN3CCC(COC(=O)C(C)(O)C(C)C1O)C23` (centres undefined): the TGI in experiment [8], in experiment [1], in experiment [2], in [3], in experiment [5] and in experiment [9] was above 100 µM throughout. Further, in experiment [7], the TGI is above 100 µM.

As for `C[C@@H]1C[C@]2(C[C@@H](C)C3[C@@H](CC4(C)[C@@H]5CCC6C(C)(C)OC(=O)C=C[C@]67C[C@@]5(CC[C@]34C)OO7)O2)OC1=O` (some centres undefined), the TGI in experiment [1] was above 100 µM; in experiment [2], above 100 µM; in [3], above 100 µM; in [10] it was above 100 µM; in experiment [6] it was 66.3 µM; in experiment [9], above 100 µM. For the same molecule, the TGI in [7] is above 100 µM.

In the case of `O=C1c2ccccc2C(=O)c2nc3ccc(Cl)cc3cc21`, the TGI in [8], in experiment [1], in experiment [2], in experiment [4], in experiment [5] and in [6] was above 100 µM in each case. Also, the TGI in [9] and in experiment [7] was above 100 µM in each case.

With `O=C(Cc1csc2nc(-c3ccc(Br)cc3)cn12)N/N=C/c1ccc(O)cc1`, the GI50 in experiment [8] is 11.5 µM; in experiment [1], 27.6 µM; in experiment [2] it was 10.6 µM; in experiment [3], 1.52 µM; in experiment [4], 18.1 µM; in experiment [5], 4.21 µM. In addition, the results for the GI50 in experiment [6], in [9] and in experiment [7] were 24.2 µM, 9.11 µM and 12 µM, respectively. Also, the TGI is 65.9 µM in experiment [8]; above 100 µM in [1]; 39.7 µM in experiment [2]; 7.72 µM in experiment [3]; 53.2 µM in experiment [4]; 49.4 µM in experiment [6]. The TGI in experiment [9] is 23.5 µM; in experiment [7], 41.7 µM.

With `CC1CC2(C)CC(=O)C1C1C(=O)N(CCN3CCCCC3)C(=O)C12` (centres undefined), the GI50 in experiment [8], in [1], in experiment [2], in experiment [3], in experiment [4] and in [5] was above 100 µM each time. The GI50 in [9] and in [7] was above 100 µM each time. Further, the TGI in [8], in experiment [1], in experiment [2], in experiment [3], in experiment [4] and in experiment [5] was above 100 µM each time. The TGI in [9] and in experiment [7] was above 100 µM in each case.

Turning to `N[C@@H]1CCCC[C@@H]1N.O=P([O-])([O-])CN(CP(=O)([O-])[O-])CP(=O)([O-])[O-].[Pt+2]`, the GI50 in experiment [2], in experiment [3], in experiment [4], in experiment [5], in experiment [6] and in [9] was above 100 µM throughout. The GI50 in experiment [7] is above 100 µM. Also, the TGI in experiment [2], in experiment [3], in experiment [4], in experiment [5], in [6] and in [9] was above 100 µM throughout. This molecule also gave a TGI in experiment [7] above 100 µM.

For `CCOC(=O)C(NC(=O)c1[nH]cnc1/N=N/N(C)C)C(C)C` (centres undefined), the TGI in experiment [8], in experiment [1], in experiment [2], in [3], in experiment [4] and in [5] was above 100 µM in each case. Also, the TGI in experiment [6], in [9] and in [7] was above 100 µM throughout.

As to `COc1ccc(S(=O)(=O)N(C)CC(=O)O)cc1`, the TGI in experiment [8], in [1], in experiment [2], in [3], in experiment [10] and in experiment [5] was above 100 µM throughout. Besides, the TGI in [6], in experiment [9] and in [7] was above 100 µM each time.

Regarding `FC1OC2OC1C(OCc1ccccc1)C(OCc1ccccc1)C2OCc1ccccc1` (centres undefined), the TGI in experiment [8] was above 100 µM; in experiment [1], above 100 µM; in experiment [2], above 100 µM; in experiment [3], above 100 µM; in [10] it was above 100 µM; in experiment [5] it was 67.4 µM. The TGI in [6], in experiment [9] and in [7] was above 100 µM in each case.

With `CC(=O)OC1CC2C(=O)C(=O)C1(C)C2(C)C` (centres undefined), the TGI in experiment [8], in experiment [1], in experiment [2], in [3], in experiment [4] and in experiment [5] was above 100 µM in each case. Besides, the TGI in [6], in [9] and in experiment [7] was above 100 µM in each case.

As to `C#CCN(Cc1ccc2nc(N)[nH]c(=O)c2c1)c1ccc(C(=O)NC(CCC(=O)O)C(=O)O)cc1` (centres undefined), the TGI in experiment [8], in [1], in experiment [2], in experiment [3], in [4] and in experiment [5] was above 100 µM each time. For the same molecule, the TGI in [6] and in [7] was above 100 µM throughout.

As for `CSC1=NCC2(S1)c1ccccc1N(C(=O)OC(C)(C)C)C2N1CCCCC1` (centres undefined), the GI50 in experiment [8] is above 100 µM; in experiment [1], above 100 µM; in [2], above 100 µM; in [3] it was above 100 µM; in experiment [4], 23.4 µM; in experiment [10], 78 µM. The GI50 in experiment [5] was above 100 µM; in [9], 76.6 µM. Moreover, the TGI in experiment [8], in [1], in [2], in [3], in experiment [4] and in experiment [10] was above 100 µM in each case. Moreover, the TGI in experiment [5] and in experiment [9] was above 100 µM throughout.

On to `N#CC1C=Cc2ccccc2N1C(=O)Oc1ccccc1` (centres undefined), for which the TGI in experiment [8] was above 100 µM; in experiment [1], above 100 µM; in experiment [2] it was above 100 µM; in experiment [3] it was above 100 µM; in [10], above 100 µM; in [5], 93.8 µM. The TGI in experiment [9] is above 100 µM.
